From US20220125765A1, “PHARMACEUTICAL COMBINATIONS COMPRISING MEBENDAZOLE AND A STRONG OR MODERATE CYP1A2 INHIBITOR” (ZEPHAPHARM LTD, priority 2019, published 2022)
Like-named read-outs stand apart in the source and are kept apart here.

Assays:
[1] = Stability in human cryopreserved hepatocytes without and with cimetidine or thiabendazole (Example 6); details: human, substrate 1 μM; for half-life at 1 μM: t½
Method: Mebendazole (1 μM) was incubated with cryopreserved human hepatocytes for 60 min in the absence and presence of cimetidine at 30, 100 and 300 μM) and thiabendazole at 10, 30 and 100 μM and samples taken at the required time points. The amount of test compound remaining at each time point was analysed by LC-MS/MS. Appropriate control compounds were also incubated along with ethoxycoumarin, which was incubated in the absence and presence of cimetidine and thiabendazole.
The final incubation volume was 500 μL. Two control compounds were included, alongside appropriate vehicle control. A positive control compound, ethoxycoumarin, for CYP1A2 was included. The positive control compound was incubated without inhibitor and in the presence of each inhibitor. The reactions were stopped by transferring 50 μL of incubate to 100 μL acetonitrile containing internal standard at the appropriate time points (0, 5, 10, 20, 40 and 60 min). The termination plates were centrifuged at 2500 rpm at 4° C. for 30 min to precipitate the protein.

[2] = Ricobendazole microsomal metabolic stability without and with cimetidine or furafylline (Example 8); assay type: in vitro ADME; details: human, liver microsomes; for half-life at 0.1 μM: read-out: t½
Method: Incubation in the absence of NADPH was also performed to assess non-CYP mediated stability. Appropriate control compounds were also incubated.
A minus cofactor control incubation was included for each compound tested where 0.1 M phosphate buffer pH 7.4 was added instead of NADPH (minus NADPH). […] A control compound (phenacetin) was included (incubated without and with inhibitors as described above). All incubations were performed singularly for each test compound. Each incubation was carried out for 0, 5, 15, 30 and 45 min. The control (minus NADPH) was incubated for 45 min only.

CYP3A4 = CYP3A4 (Homo sapiens, UniProt P08684); assay: Cytochrome P450 reaction phenotyping, recombinant CYP3A4 (Bactosomes); details: human, recombinant enzyme, pH 7.4
CYP3A4, sequence (P08684 whole entry, canonical isoform): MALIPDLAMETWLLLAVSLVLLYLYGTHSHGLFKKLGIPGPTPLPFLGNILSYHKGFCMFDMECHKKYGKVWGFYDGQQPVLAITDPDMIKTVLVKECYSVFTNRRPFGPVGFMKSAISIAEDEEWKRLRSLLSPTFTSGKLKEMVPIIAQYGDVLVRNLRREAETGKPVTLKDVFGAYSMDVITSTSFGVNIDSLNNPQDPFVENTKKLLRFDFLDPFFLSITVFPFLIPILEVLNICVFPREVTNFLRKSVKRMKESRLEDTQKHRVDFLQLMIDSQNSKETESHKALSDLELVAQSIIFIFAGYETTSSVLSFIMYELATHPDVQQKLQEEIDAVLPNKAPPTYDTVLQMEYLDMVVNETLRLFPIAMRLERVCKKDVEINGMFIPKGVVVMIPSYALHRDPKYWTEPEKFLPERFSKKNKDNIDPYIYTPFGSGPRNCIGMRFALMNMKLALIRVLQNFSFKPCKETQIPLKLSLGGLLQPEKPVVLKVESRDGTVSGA
Method: (§1) Incubations were also performed using control Bactosomes™ (no P450 enzymes present) to reveal any non-enzymatic degradation. Control compounds known to be metabolised specifically by each P450 isoform were included. All incubations were performed singularly for each test compound.
(§2) Incubations were also performed using control Bactosomes™ (no P450 enzymes present) to reveal any non-enzymatic degradation. Control compounds known to be metabolised specifically by each P450 isoform were included. All incubations were performed singularly for each test compound. […] The reactions were stopped by transferring an aliquot of incubate to quench solvent at the appropriate time points, in a 1:3 ratio. The termination plates were centrifuged at 3,000 rpm for 20 min at 4° C. to precipitate the protein.

CYP2C19 = CYP2C19 (Homo sapiens, UniProt P33261); assay: Cytochrome P450 reaction phenotyping, recombinant CYP2C19 (Bactosomes); details: human, recombinant enzyme, pH 7.4
CYP2C19, sequence (P33261 whole entry): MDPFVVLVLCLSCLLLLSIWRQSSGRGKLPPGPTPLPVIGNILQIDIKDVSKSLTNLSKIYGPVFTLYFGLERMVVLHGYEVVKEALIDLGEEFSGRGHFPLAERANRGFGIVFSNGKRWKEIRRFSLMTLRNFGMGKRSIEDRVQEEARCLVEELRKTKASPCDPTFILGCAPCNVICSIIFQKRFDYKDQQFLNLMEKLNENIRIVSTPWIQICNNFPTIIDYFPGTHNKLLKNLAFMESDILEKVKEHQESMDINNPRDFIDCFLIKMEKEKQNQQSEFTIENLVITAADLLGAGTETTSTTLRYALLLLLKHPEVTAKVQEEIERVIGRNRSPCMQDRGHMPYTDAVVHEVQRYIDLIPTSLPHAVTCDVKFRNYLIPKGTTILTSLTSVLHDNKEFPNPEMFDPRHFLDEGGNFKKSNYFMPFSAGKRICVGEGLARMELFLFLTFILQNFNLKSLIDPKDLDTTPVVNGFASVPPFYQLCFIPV
Method: as §1, §2

CYP2B6 = target: T1, CYP2B6 (Homo sapiens, UniProt P20813); assay: Cytochrome P450 reaction phenotyping, recombinant CYP2B6 (Bactosomes); details: CYP2B6, substrate 1 μM
T1 sequence (P20813 1-491): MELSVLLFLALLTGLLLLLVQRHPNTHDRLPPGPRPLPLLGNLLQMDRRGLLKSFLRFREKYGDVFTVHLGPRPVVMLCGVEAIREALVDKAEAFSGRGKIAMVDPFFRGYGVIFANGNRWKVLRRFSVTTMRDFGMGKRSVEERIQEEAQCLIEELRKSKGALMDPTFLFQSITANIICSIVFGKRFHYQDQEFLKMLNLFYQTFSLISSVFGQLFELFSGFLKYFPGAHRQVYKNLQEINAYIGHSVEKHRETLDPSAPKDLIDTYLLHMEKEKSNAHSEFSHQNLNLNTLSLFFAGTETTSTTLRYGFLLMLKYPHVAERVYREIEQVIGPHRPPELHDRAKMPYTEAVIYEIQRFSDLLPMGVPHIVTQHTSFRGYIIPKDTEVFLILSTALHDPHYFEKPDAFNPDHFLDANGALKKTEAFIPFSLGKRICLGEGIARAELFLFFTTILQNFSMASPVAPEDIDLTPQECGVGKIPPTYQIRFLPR
Method: as §1, §2

CYP2C8 = target: T2, CYP2C8 (Homo sapiens, UniProt P10632); assay: Cytochrome P450 reaction phenotyping, recombinant CYP2C8 (Bactosomes); details: CYP2C8, substrate 1 μM
T2 sequence (P10632 1-490): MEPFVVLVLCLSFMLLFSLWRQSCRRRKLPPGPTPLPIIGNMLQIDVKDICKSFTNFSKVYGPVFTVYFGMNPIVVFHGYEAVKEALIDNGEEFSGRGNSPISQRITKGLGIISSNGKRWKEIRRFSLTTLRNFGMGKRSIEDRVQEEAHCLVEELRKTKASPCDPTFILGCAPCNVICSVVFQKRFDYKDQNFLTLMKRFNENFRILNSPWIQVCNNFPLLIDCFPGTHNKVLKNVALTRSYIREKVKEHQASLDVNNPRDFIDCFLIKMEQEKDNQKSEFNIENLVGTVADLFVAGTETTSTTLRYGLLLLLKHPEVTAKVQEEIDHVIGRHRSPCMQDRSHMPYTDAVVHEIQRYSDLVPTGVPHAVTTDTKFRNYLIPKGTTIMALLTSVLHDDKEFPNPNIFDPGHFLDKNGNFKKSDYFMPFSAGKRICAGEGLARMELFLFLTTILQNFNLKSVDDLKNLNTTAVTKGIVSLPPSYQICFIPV
Method: as §1, §2

CYP1A2 = target: T3, CYP1A2 (Homo sapiens, UniProt P05177); assay: Cytochrome P450 reaction phenotyping, recombinant CYP1A2 (Bactosomes)
T3 sequence (P05177 1-516): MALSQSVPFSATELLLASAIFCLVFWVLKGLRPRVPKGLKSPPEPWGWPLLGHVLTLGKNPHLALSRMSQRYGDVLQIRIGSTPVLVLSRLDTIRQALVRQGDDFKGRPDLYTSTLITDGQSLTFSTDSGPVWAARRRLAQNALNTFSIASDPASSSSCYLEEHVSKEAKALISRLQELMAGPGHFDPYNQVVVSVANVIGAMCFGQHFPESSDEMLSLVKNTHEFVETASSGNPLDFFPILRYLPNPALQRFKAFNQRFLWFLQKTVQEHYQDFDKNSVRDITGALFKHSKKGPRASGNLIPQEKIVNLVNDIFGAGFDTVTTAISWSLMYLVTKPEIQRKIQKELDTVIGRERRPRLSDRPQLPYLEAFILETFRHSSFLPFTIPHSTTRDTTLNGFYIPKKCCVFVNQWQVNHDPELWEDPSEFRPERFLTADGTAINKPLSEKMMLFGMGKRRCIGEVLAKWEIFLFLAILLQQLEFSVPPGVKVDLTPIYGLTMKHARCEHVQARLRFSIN
Method: as §1, §2

CYP2D6 = CYP2D6 (Homo sapiens, UniProt P10635); assay: Cytochrome P450 reaction phenotyping, recombinant CYP2D6 (Bactosomes); details: human, recombinant enzyme, pH 7.4
CYP2D6, sequence (P10635 whole entry): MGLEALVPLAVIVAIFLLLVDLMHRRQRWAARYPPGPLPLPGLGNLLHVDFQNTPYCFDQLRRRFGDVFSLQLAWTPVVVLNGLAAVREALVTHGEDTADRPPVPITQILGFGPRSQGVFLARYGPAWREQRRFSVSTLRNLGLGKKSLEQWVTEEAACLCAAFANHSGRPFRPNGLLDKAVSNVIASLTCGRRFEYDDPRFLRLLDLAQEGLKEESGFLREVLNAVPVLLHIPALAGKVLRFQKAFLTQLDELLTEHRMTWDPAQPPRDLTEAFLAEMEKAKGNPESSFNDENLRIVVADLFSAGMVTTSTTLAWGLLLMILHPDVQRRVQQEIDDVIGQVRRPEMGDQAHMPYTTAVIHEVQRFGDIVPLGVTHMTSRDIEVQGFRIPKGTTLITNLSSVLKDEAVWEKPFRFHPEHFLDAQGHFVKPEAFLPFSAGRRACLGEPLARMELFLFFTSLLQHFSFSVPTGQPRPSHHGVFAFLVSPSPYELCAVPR
Method: as §1, §2

CYP2C9 = CYP2C9 (Homo sapiens, UniProt P11712); assay: Cytochrome P450 reaction phenotyping, recombinant CYP2C9 (Bactosomes); details: human, recombinant enzyme, pH 7.4
CYP2C9, sequence (P11712 whole entry): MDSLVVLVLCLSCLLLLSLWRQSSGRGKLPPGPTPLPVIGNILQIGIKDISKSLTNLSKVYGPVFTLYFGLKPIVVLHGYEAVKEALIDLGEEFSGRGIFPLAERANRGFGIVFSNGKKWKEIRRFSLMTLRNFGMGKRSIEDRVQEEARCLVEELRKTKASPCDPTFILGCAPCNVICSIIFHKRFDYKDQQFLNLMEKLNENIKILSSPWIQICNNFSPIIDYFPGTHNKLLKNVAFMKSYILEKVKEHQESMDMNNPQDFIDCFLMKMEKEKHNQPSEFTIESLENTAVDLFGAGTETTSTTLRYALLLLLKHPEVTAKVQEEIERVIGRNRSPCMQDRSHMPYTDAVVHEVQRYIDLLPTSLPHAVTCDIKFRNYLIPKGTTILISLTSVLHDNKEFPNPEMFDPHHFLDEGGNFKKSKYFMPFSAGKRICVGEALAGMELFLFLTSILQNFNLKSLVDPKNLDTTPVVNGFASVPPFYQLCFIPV
Method: as §1, §2

[3] = cryopreserved hepatocytes (suspension), no inhibitor

## CCOc1ccc2ccc(=O)oc2c1
[1]; [3]
  hepatocyte CLint at 1 µM: 105 µL/min/1e6 cells
  half-life at 1 μM: 0.22 h
[1]; cryopreserved hepatocytes (suspension), with cimetidine 30 µM, cimetidine 30 μM
  hepatocyte CLint at 1 µM: 99.9 µL/min/1e6 cells
[1]; cryopreserved hepatocytes (suspension), with cimetidine 100 µM, cimetidine 100 μM
  hepatocyte CLint at 1 µM: 88.8 µL/min/1e6 cells
[1]; cryopreserved hepatocytes (suspension), with cimetidine 300 µM, cimetidine 300 μM
  hepatocyte CLint at 1 µM: 59.8 µL/min/1e6 cells
[1]; cryopreserved hepatocytes (suspension), with thiabendazole 10 µM, thiabendazole 10 μM
  hepatocyte CLint at 1 µM: 8.65 µL/min/1e6 cells
[1]; cryopreserved hepatocytes (suspension), with thiabendazole 30 µM, thiabendazole 30 μM
  hepatocyte CLint at 1 µM: 5.35 µL/min/1e6 cells
[1]; cryopreserved hepatocytes (suspension), with thiabendazole 100 µM, thiabendazole 100 μM
  hepatocyte CLint at 1 µM: 4.05 µL/min/1e6 cells
[1]; cryopreserved hepatocytes, with cimetidine 30 μM, cimetidine 30 μM
  half-life at 1 μM: 0.232 h
[1]; cryopreserved hepatocytes, with cimetidine 100 μM, cimetidine 100 μM
  half-life at 1 μM: 0.26 h
[1]; cryopreserved hepatocytes, with cimetidine 300 μM, cimetidine 300 μM
  half-life at 1 μM: 0.387 h
[1]; cryopreserved hepatocytes, with thiabendazole 10 μM, thiabendazole 10 μM
  half-life at 1 μM: 2.67 h
[1]; cryopreserved hepatocytes, with thiabendazole 30 μM, thiabendazole 30 μM
  half-life at 1 μM: 4.32 h
[1]; cryopreserved hepatocytes, with thiabendazole 100 μM, thiabendazole 100 μM
  half-life at 1 μM: 5.72 h

## CCC[S+]([O-])c1ccc2[nH]c(NC(=O)OC)nc2c1 (centres unmarked) [Ricobendazole, albendazole sulphoxide]
[2]; pH 7.4, with cimetidine 30 μM, 0.1 μM, 1 mg/mL, cimetidine 30 μM, read-out: CLint
  microsomal CLint at 0.1 μM: 3.15 ± 1.24 µL/min/mg
[2]; pH 7.4, with cimetidine 30 μM, 0.1 μM, 1 mg/mL, cimetidine 30 μM
  half-life at 0.1 μM: 3.67 h
[2]; pH 7.4, with cimetidine 100 μM, 0.1 μM, 1 mg/mL, cimetidine 100 μM, read-out: CLint
  microsomal CLint at 0.1 μM: 3.43 ± 1.56 µL/min/mg
[2]; pH 7.4, with cimetidine 100 μM, 0.1 μM, 1 mg/mL, cimetidine 100 μM
  half-life at 0.1 μM: 3.37 h
[2]; pH 7.4, with cimetidine 300 μM, 0.1 μM, 1 mg/mL, cimetidine 300 μM, read-out: CLint
  microsomal CLint at 0.1 μM: 3.54 ± 1.09 µL/min/mg
[2]; pH 7.4, with cimetidine 300 μM, 0.1 μM, 1 mg/mL, cimetidine 300 μM
  half-life at 0.1 μM: 3.27 h
[2]; pH 7.4, with furafylline 3 μM, read-out: CLint
  microsomal CLint at 0.1 μM: 1.27 ± 2.47 µL/min/mg
[2]; pH 7.4, with furafylline 3 μM
  half-life at 0.1 μM: 9.08 h
[2]; pH 7.4, with furafylline 10 μM, read-out: CLint
  microsomal CLint at 0.1 μM: 4.31 ± 2.48 µL/min/mg
[2]; pH 7.4, with furafylline 10 μM
  half-life at 0.1 μM: 2.68 h
[2]; pH 7.4, with furafylline 30 μM, read-out: CLint
  microsomal CLint at 0.1 μM: 2.92 ± 1.75 µL/min/mg
[2]; pH 7.4, with furafylline 30 μM
  half-life at 0.1 μM: 3.95 h
[2]; pH 7.4, 0.1 μM, 1 mg/mL, no inhibitor, read-out: CLint
  microsomal CLint at 0.1 μM: 2.83 ± 1.76 µL/min/mg
[2]; pH 7.4, 0.1 μM, 1 mg/mL, no inhibitor
  half-life at 0.1 μM: 4.08 h
[2]; optimisation, 0.1 μM and 1 mg/mL protein, read-out: intrinsic clearance
  microsomal CLint at 0.1 μM: 6.63 ± 1.84 µL/min/mg
[2]; optimisation, 1 μM and 0.5 mg/mL protein, read-out: intrinsic clearance
  microsomal CLint at 1 μM: 4.39 ± 2.77 µL/min/mg
CYP3A4
  half-life at 1 μM: 8.15 ± 11.4 h
CYP2C19
  half-life at 1 μM: 10.3 ± 10.8 h
CYP2B6
  metabolism by recombinant enzyme: not metabolised
CYP2C8
  metabolism by recombinant enzyme: not metabolised
CYP1A2; CYP1A2, substrate 1 μM, 45 min
  % remaining: 85%
CYP1A2; human, recombinant enzyme, pH 7.4
  half-life at 1 μM: 4 ± 0.635 h
CYP2D6
  half-life at 1 μM: 7.75 ± 4.55 h
CYP2C9
  half-life at 1 μM: 4.53 ± 2.67 h
